Test results from publication PMC7481839, “Switchable foldamer ion channels with antibacterial activity” (Chemical Science, 2020).
Where a SMILES comes first, the peptide text is derived from it.

Experiment: Planar bilayer conductance (PBC) studies
Format: biochemical
Conditions: +100 or –100 mV, 50 s sweeps, up to 2 h, final concentration 8.3 µM, 20 mM MOPS, 100 mM NaCl or KCl, pH 7.4
Method: The observation of discrete conductance events can indicate channel formation and provide information on the nature of these channels.
PBC experiments were performed in a custom-built cell, with either 2 or Cu(II)[2]Cl2 (5–10 μL of a 1 mM solution in MeOH) added to the ground well. Characterisation sweeps were continued for 2 h, or until substantial channel-forming activity was observed. Single channel experiments were conducted under an applied potential of +100 or –100 mV in 50 s sweeps. […] Large current levels and reproducible well-defined quantized steps from 0.5 to 5 ms in duration (similar to the “flicker” behaviour described by Chui and Fyles[42]) were measured (Fig. 6). […] This could imply [Cu(II)[2]Cl]^+ cations[44] are involved in the channel-forming species. Channel events have multilevel conductances, both at +100 mV (∼0.08 nS, ∼0.14 nS) and at –100 mV potentials (∼0.08 nS, ∼0.15 nS).
The blue product from the addition of CuCl to 2 was also assessed using PBC experiments. […] In addition, much longer lived “square topped” openings could also be observed (Fig. 6b). These very regular well-defined quantized current steps were open for up to 20 ms at +100 mV, with multiple stepwise increases in conductance with ∼0.18 nS increments.[46] […]

CC(C)(NC(=O)C(C)(C)NC(=O)C(C)(C)NC(=O)C(C)(C)NC(=O)C(C)(C)n1cc(CN(Cc2ccccn2)Cc2ccccn2)nn1)C(=O)NC(C)(C)C(=O)NC(C)(C)C(=O)NC(C)(C)C(=O)OCC[Si](C)(C)C [foldamer 2] (HELM PEPTIDE1{[CC(C)(C(=O)[*:2])n1cc(CN(Cc2ccccn2)Cc2ccccn2)nn1].[Aib].[Aib].[Aib].[Aib].[Aib].[Aib].[Aib].[C[Si](C)(C)CCO[*:1]]}$$$$V2.0)
ion channel behaviour in PBC: did not display any ion channel behaviour
